Source: patent US7968584B2, “Substituted arylpyrazoles” (Pfizer Inc., priority 2005, dated 2011)

These compounds were tested on Ctenocephalides felis (assay: flea membrane feed test). Settings: Ctenocephalides felis; in vitro, adult cat fleas fed 2 hours through parafilm membrane on citrated dog blood containing compound; percentage killed recorded after overnight storage; dose responses n=5; read-out: Flea feed ED80 results.
Protocol: The flea membrane feed test is used to measure the biological activities of the compounds claimed. The assay involves in vitro testing against Ctenocephalides felis conducted according to the following general procedure.
Fleas are cultured in vitro using dog blood. 25-30 adult Ctenocephalides felis (cat flea) were collected and placed in a test chamber (50 ml polystyrene tube with fine nylon mesh sealing the end). Citrated dog blood was prepared by adding aqueous sodium citrate solution (10 ml, 20% w/v, 20 g sodium citrate in 100 ml water) to dog blood (250 ml). Test compounds were dissolved in dimethylsulfoxide to give a working stock solution of 4 mg/ml. The stock solution (12.5 μl) was added to citrated dog blood (5 ml) to give an initial test concentration of 10 μg/ml. For testing at 30 µg/ml, working stock solutions of 12 mg/ml were prepared.
Citrated dog blood containing the test compound (5 ml, 100 μg/ml) was placed into a plastic Petri dish lid, which was kept at 37° C. on a heated pad. Parafilm was stretched over the open top to form a tight membrane for the fleas to feed through. The test chamber containing the fleas was placed carefully onto the parafilm membrane and the fleas commenced feeding.
The fleas were allowed to feed for 2 hours and the test chambers were then removed and stored overnight at room temperature.
The fleas were observed and the percentage of fleas killed recorded. Compounds were initially tested at 100 μg/ml, wherefrom relevant dose responses (100, 30, 10, 3, 1, 0.3, 0.1 μg/ml) were conducted and repeated n=5. Data was plotted to generate ED80, ED90 & ED95 values.

SMILES	EC80 [µg/mL]
N#Cc1nn(-c2c(Cl)cc(S(F)(F)(F)(F)F)cc2Cl)c(NCCF)c1C1(C(N)=O)CC1 [Example 16, 1-{3-cyano-1-[2,6-dichloro-4-pentafluorothiophenyl]-5-[(2-fluoroethyl)amino]-1H-pyrazol-4-yl}cyclopropanecarboxamide]	≤ 1
N#Cc1nn(-c2c(Cl)cc(S(F)(F)(F)(F)F)cc2Cl)c(NC(=O)OCC2(CF)CC2)c1C1(C(N)=O)CC1 [Example 27, [1-(fluoromethyl)cyclopropyl]methyl {4-[1-(aminocarbonyl)cyclopropyl]-3-cyano-1-[2,6-dichloro-4-pentafluorothiophenyl]-1H-pyrazol-5-yl}carbamate]	≤ 1
CCOC(=O)Nc1c(C2(C(N)=O)CC2)c(C#N)nn1-c1c(Cl)cc(OC(F)(F)F)cc1Cl [Example 37, ethyl {4-[1-(aminocarbonyl)cyclopropyl]-3-cyano-1-[2,6-dichloro-4-(trifluoromethoxy)phenyl]-1H-pyrazol-5-yl}carbamate]	≤ 1
CS(=O)(=O)C1(c2c(C#N)nn(-c3c(Cl)cc(S(F)(F)(F)(F)F)cc3Cl)c2N)CC1 [Example 1, 5-amino-1-[2,6-dichloro-4-pentafluorothiophenyl]-4-[1-(methylsulfonyl)cyclopropyl]-1H-pyrazole-3-carbonitrile]	≤ 1
N#Cc1nn(-c2c(Cl)cc(S(F)(F)(F)(F)F)cc2Cl)c(Cl)c1C1(C(N)=O)CC1 [Example 86, 1-{5-chloro-3-cyano-1-[2,6-dichloro-4-pentafluorothiophenyl]-1H-pyrazol-4-yl}cyclopropanecarboxamide]	≤ 1
N#Cc1nn(-c2c(Cl)cc(S(F)(F)(F)(F)F)cc2Cl)c(N)c1C1(C(N)=O)CC1(Cl)Cl (stereo not shown) [Example 18, 1-{5-amino-3-cyano-1-[2,6-dichloro-4-pentafluorothiophenyl]-1H-pyrazol-4-yl}-2,2-dichlorocyclopropanecarboxamide]	≤ 1
CC(C)OC(=O)Nc1c(C2(C(N)=O)CC2)c(C#N)nn1-c1c(Cl)cc(S(F)(F)(F)(F)F)cc1Cl [Example 20, isopropyl {4-[1-(aminocarbonyl)cyclopropyl]-3-cyano-1-[2,6-dichloro-4-pentafluorothiophenyl]-1H-pyrazol-5-yl}carbamate]	≤ 1
N#Cc1nn(-c2c(Cl)cc(S(F)(F)(F)(F)F)cc2Cl)c(NCC2CC2)c1C1(C(=O)NCc2ccncc2)CC1 [Example 19, 1-{3-cyano-5-[(cyclopropylmethyl)amino]-1-[2,6-dichloro-4-pentafluorothiophenyl]-1H-pyrazol-4-yl}-N-(pyridin-4-ylmethyl)cyclopropanecarboxamide]	≤ 1
N#Cc1nn(-c2c(Cl)cc(C(F)(F)F)cc2Cl)c(N)c1C1(C(N)=O)CC1 [Example 2, 1-{5-amino-3-cyano-1-[2,6-dichloro-4-(trifluoromethyl)phenyl]-1H-pyrazol-4-yl}cyclopropanecarboxamide]	≤ 1

Same assay, conditions: in vitro, adult cat fleas fed 2 hours through parafilm membrane on citrated dog blood containing compound; percentage killed recorded after overnight storage; dose responses n=5

SMILES	Flea feed ED80 results
N#Cc1nn(-c2c(Cl)cc(S(F)(F)(F)(F)F)cc2Cl)c(NCC2CC2)c1C1(C(=O)NCc2ccccn2)CC1 [Example 45, 1-{3-cyano-5-[(cyclopropylmethyl)amino]-1-[2,6-dichloro-4-pentafluorothiophenyl]-1H-pyrazol-4-yl}-N-(pyridin-2-ylmethyl)cyclopropanecarboxamide]	≦1 μg/ml
N#Cc1nn(-c2c(Cl)cc(S(F)(F)(F)(F)F)cc2Cl)c(N)c1C1(C#N)CC1 [Example 11, 5-amino-4-(1-cyanocyclopropyl)-1-[2,6-dichloro-4-pentafluorothiophenyl]-1H-pyrazole-3-carbonitrile]	≦1 μg/ml
N#Cc1nn(-c2c(Cl)cc(S(F)(F)(F)(F)F)cc2Cl)c(CNC(=O)OCC2CC2)c1C1(C(N)=O)CC1 [Example 101, cyclopropylmethyl {4-[1-(aminocarbonyl)cyclopropyl]-3-cyano-1-[2,6-dichloro-4-pentafluorothiophenyl]-1H-pyrazol-5-yl}methylcarbamate]	≦1 μg/ml
N#Cc1nn(-c2c(Cl)cc(S(F)(F)(F)(F)F)cc2Cl)c(NCCC(N)=O)c1C1(C(N)=O)CC1 [Example 32, N˜3˜-{4-[1-(aminocarbonyl)cyclopropyl]-3-cyano-1-[2,6-dichloro-4-pentafluorothiophenyl]-1H-pyrazol-5-yl}-beta-alaninamide]	≦1 μg/ml
